Consider 16 compounds from US20260274829A1, “NEW E3 UBIQUITIN LIGASE LIGAND, PROTEIN DEGRADATION AGENT AND USE THEREOF” (GLUETACS THERAPEUTICS (SHANGHAI) CO., LTD., priority 2023, published 2026).

SMILES strings stand for the structures. Bounds are passed on as bounds.

The target of this experiment is T1, human Cereblon WT GST-tagged protein (Homo sapiens, UniProt Q96SW2).
T1 construct: purchased CISBIO 64BDCRBNPEH
T1 sequence (Q96SW2 whole entry): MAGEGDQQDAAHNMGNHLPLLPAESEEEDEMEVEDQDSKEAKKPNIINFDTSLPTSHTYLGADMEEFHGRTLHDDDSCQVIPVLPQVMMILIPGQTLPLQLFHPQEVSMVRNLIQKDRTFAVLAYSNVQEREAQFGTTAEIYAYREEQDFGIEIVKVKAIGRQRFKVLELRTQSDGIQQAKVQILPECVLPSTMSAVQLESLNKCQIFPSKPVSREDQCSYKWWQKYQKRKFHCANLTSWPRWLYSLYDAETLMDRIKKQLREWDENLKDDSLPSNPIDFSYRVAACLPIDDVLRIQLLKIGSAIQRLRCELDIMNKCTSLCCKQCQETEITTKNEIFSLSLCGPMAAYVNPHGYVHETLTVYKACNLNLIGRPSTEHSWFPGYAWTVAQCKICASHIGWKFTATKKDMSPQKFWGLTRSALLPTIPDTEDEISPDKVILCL
Briefly: CRBN binding, HTRF CEREBLON BINDING kit. Conditions: CRBN binding, HTRF CEREBLON BINDING kit. Put shortly: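 Binding inhibition was calculated from the 665/620 nm emission ratios, with blank wells and solvent wells as references. Test compounds competed for GST-tagged human Cereblon WT against a Thalidomide-Re reagent paired with GST Eu antibody. Plates were sealed and held at room temperature for 3 hours before the HTRF read.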
Usually IC50 stands for the point on the concentration scale where inhibition reaches its midpoint. Turning to `COc1cc(N2CCC(N3CCN(Cc4cccc(N5CCC(=O)NC5=O)c4)CC3)CC2)ccc1Nc1ncc(Cl)c(Nc2ccccc2P(C)(C)=O)n1` [GT-07604, 1-(3-((4-(1-(4-((5-chloro-4-((2-(dimethylphosphoryl)phenyl)amino)pyrimidin-2-yl)amino)-3-methoxyphenyl)piperidin-4-yl)piperazin-1-yl)methyl)phenyl)dihydropyrimidine-2,4(1H,3H)-dione], the IC50 fell in the range of 1000 to 1900 nM. `COc1cc(N2CCC(N3CCN(Cc4cccc(NC5CCC(=O)NC5=O)c4)CC3)CC2)ccc1Nc1ncc(Cl)c(Nc2ccccc2P(C)(C)=O)n1` (stereo not shown) [GT-07605, 3-((3-((4-(1-(4-((5-chloro-4-((2-(dimethylphosphoryl)phenyl)amino)pyrimidin-2-yl)amino)-3-methoxyphenyl)piperidin-4-yl)piperazin-1-yl)methyl)phenyl)amino)piperidine-2,6-dione] yielded a half-inhibitory concentration (IC50) of 1000 to 1900 nM. For `COc1cc(N2CCC(N3CCN(Cc4cc(C5CCC(=O)NC5=O)cnc4F)CC3)CC2)ccc1Nc1ncc(Cl)c(Nc2ccccc2P(C)(C)=O)n1` (stereo not shown) [GT-07611, 3-(5-((4-(1-(4-((5-chloro-4-((2-(dimethylphosphoryl)phenyl)amino)pyrimidin-2-yl)amino)-3-methoxyphenyl)piperidin-4-yl)piperazin-1-yl)methyl)-6-fluoropyridin-3-yl)piperidine-2,6-dione] the value was 500 to 1000 nM. Consider `COc1cc(N2CCC(N3CCN(Cc4ccc(C5CCC(=O)NC5=O)cn4)CC3)CC2)ccc1Nc1ncc(Cl)c(Nc2ccccc2P(C)(C)=O)n1` (stereo not shown) [GT-07613, 3-(6-((4-(1-(4-((5-chloro-4-((2-(dimethylphosphoryl)phenyl)amino)pyrimidin-2-yl)amino)-3-methoxyphenyl)piperidin-4-yl)piperazin-1-yl)methyl)pyridin-3-yl)piperidine-2,6-dione], for which the IC50 lay within 500 to 1000 nM. Next, `COc1cc(N2CCC(N3CCN(Cc4cncc(C5CCC(=O)NC5=O)c4)CC3)CC2)ccc1Nc1ncc(Cl)c(Nc2ccccc2P(C)(C)=O)n1` (stereo not shown) [GT-07614, 3-(5-((4-(1-(4-((5-chloro-4-((2-(dimethylphosphoryl)phenyl)amino)pyrimidin-2-yl)amino)-3-methoxyphenyl)piperidin-4-yl)piperazin-1-yl)methyl)pyridin-3-yl)piperidine-2,6-dione]: 1000 to 1900 nM.

Turning to `COc1cc(N2CCC(N(C)Cc3cccc(N4CCC(=O)NC4=O)c3)CC2)ccc1Nc1ncc(Cl)c(Nc2ccccc2P(C)(C)=O)n1` [GT-07616, 1-(3-(((1-(4-((5-chloro-4-((2-(dimethylphosphoryl)phenyl)amino)pyrimidin-2-yl)amino)-3-methoxyphenyl)piperidin-4-yl)(methyl)amino)methyl)phenyl)dihydropyrimidine-2,4(1H,3H)-dione], the IC50 lay in the range of 1000 to 1900 nM.

`COc1cc(N2CCC(N(C)Cc3ccc(N4CCC(=O)NC4=O)cn3)CC2)ccc1Nc1ncc(Cl)c(Nc2ccccc2P(C)(C)=O)n1` [GT-07617, 1-(6-(((1-(4-((5-chloro-4-((2-(dimethylphosphoryl)phenyl)amino)pyrimidin-2-yl)amino)-3-methoxyphenyl)piperidin-4-yl)(methyl)amino)methyl)pyridin-3-yl)dihydropyrimidine-2,4(1H,3H)-dione]: the IC50 lay within 1000 to 1900 nM. In turn, `COc1cc(N2CCC(N(C)Cc3cncc(N4CCC(=O)NC4=O)c3)CC2)ccc1Nc1ncc(Cl)c(Nc2ccccc2P(C)(C)=O)n1` [GT-07695, 1-(5-(((1-(4-((5-chloro-4-((2-(dimethylphosphoryl)phenyl)amino)pyrimidin-2-yl)amino)-3-methoxyphenyl)piperidin-4-yl)(methyl)amino)methyl)pyridin-3-yl)dihydropyrimidine-2,4(1H,3H)-dione] showed an IC50 of 1000 to 1900 nM.

The compound `COc1cc(N2CCC(N(C)Cc3cc(C4CCC(=O)NC4=O)cnc3F)CC2)ccc1Nc1ncc(Cl)c(Nc2ccccc2P(C)(C)=O)n1` (stereo not shown) [GT-07696, 3-(5-(((1-(4-((5-chloro-4-((2-(dimethylphosphoryl)phenyl)amino)pyrimidin-2-yl)amino)-3-methoxyphenyl)piperidin-4-yl)(methyl)amino)methyl)-6-fluoropyridin-3-yl)piperidine-2,6-dione] registered an IC50 of less than 500 nM. For `COc1cc(N2CCC(N(C)Cc3ccc(C4CCC(=O)NC4=O)cn3)CC2)ccc1Nc1ncc(Cl)c(Nc2ccccc2P(C)(C)=O)n1` (stereo not shown) [GT-07698, 3-(6-(((1-(4-((5-chloro-4-((2-(dimethylphosphoryl)phenyl)amino)pyrimidin-2-yl)amino)-3-methoxyphenyl)piperidin-4-yl)(methyl)amino)methyl)pyridin-3-yl)piperidine-2,6-dione] the value was 1000 to 1900 nM; for `COc1cc(N2CCC(N(C)Cc3cncc(C4CCC(=O)NC4=O)c3)CC2)ccc1Nc1ncc(Cl)c(Nc2ccccc2P(C)(C)=O)n1` (stereo not shown) [GT-07699, 3-(5-(((1-(4-((5-chloro-4-((2-(dimethylphosphoryl)phenyl)amino)pyrimidin-2-yl)amino)-3-methoxyphenyl)piperidin-4-yl)(methyl)amino)methyl)pyridin-3-yl)piperidine-2,6-dione], 500 to 1000 nM. Next, `CCc1cc2c(cc1N1CCC(N3CCN(Cc4cncc(N5CCC(=O)NC5=O)c4)CC3)CC1)C(C)(C)c1[nH]c3cc(C#N)ccc3c1C2=O` [GT-07702, 8-(4-(4-((5-(2,4-dioxotetrahydropyrimidin-1(2H)-yl)pyridin-3-yl)methyl)piperazin-1-yl)piperidin-1-yl)-9-ethyl-6,6-dimethyl-11-oxo-6,11-dihydro-5H-benzo[b]carbazole-3-carbonitrile]: less than 500 nM; `CCc1cc2c(cc1N1CCC(N3CCN(Cc4cc(C5CCC(=O)NC5=O)cnc4F)CC3)CC1)C(C)(C)c1[nH]c3cc(C#N)ccc3c1C2=O` (stereo not shown) [GT-07703, 8-(4-(4-((5-(2,6-dioxopiperidin-3-yl)-2-fluoropyridin-3-yl)methyl)piperazin-1-yl)piperidin-1-yl)-9-ethyl-6,6-dimethyl-11-oxo-6,11-dihydro-5H-benzo[b]carbazole-3-carbonitrile]: less than 500 nM; `CCc1cc2c(cc1N1CCC(N3CCN(Cc4ccnc(C5CCC(=O)NC5=O)c4)CC3)CC1)C(C)(C)c1[nH]c3cc(C#N)ccc3c1C2=O` (stereo not shown) [GT-07704, 8-(4-(4-((2-(2,6-dioxopiperidin-3-yl)pyridin-4-yl)methyl)piperazin-1-yl)piperidin-1-yl)-9-ethyl-6,6-dimethyl-11-oxo-6,11-dihydro-5H-benzo[b]carbazole-3-carbonitrile]: 1000 to 1900 nM. Next, `CCc1cc2c(cc1N1CCC(N3CCN(Cc4ccc(C5CCC(=O)NC5=O)cn4)CC3)CC1)C(C)(C)c1[nH]c3cc(C#N)ccc3c1C2=O` (stereo not shown) [GT-07705, 8-(4-(4-((5-(2,6-dioxopiperidin-3-yl)pyridin-2-yl)methyl)piperazin-1-yl)piperidin-1-yl)-9-ethyl-6,6-dimethyl-11-oxo-6,11-dihydro-5H-benzo[b]carbazole-3-carbonitrile]: less than 500 nM; `CCc1cc2c(cc1N1CCC(N3CCN(Cc4cncc(C5CCC(=O)NC5=O)c4)CC3)CC1)C(C)(C)c1[nH]c3cc(C#N)ccc3c1C2=O` (stereo not shown) [GT-07706, 8-(4-(4-((5-(2,6-dioxopiperidin-3-yl)pyridin-3-yl)methyl)piperazin-1-yl)piperidin-1-yl)-9-ethyl-6,6-dimethyl-11-oxo-6,11-dihydro-5H-benzo[b]carbazole-3-carbonitrile]: less than 500 nM.
